Test results: patent US8853274B1, “Compositions and methods for targeting glioblastomas cells” (Vanderbilt University, priority 2011, dated 2014)

Legend:
Assay type in all cases: cell-based, human
T4302 CD133+ cells [1] = experiment: Neurosphere formation (clonogenic survival); conditions: following 3-Gy X-ray radiation; 2 μM DAPT or 0.5 μM L685,458, 4 h pre-treatment
Method: (A) T4302 CD133+ GBM stem cells were enriched from freshly collected subcutaneous xenograft tumors, cultured in stem cell media. Cells were left unirradiated or irradiated at 3 Gy. The relative mRNA levels of Hes2 were determined by quantitative real-time PCR at the time points as indicated. (B) T4302 CD133+ cells were pre-treated with vehicle (DMSO), 2 μM DAPT or 0.5 μM L685,458 for 4 hours and irradiated as indicated. Cells were then plated to form neurospheres. Fourteen days after plating, neurospheres containing more than 50 cells were scored. […] Relative caspase 3/7 activities were determined by normalizing caspase activities to the corresponding cell numbers. […] Relative caspase 3/7 activities and clonogenic survival were determined as described above. […] Clonogenic survival was determined as described above. *: p<0.05 by Student's t-test; #: p<0.01 by one-way ANOVA.
(A, B) T4302 CD133+ cells were treated with 100 nM RO4929097 (GSI) and/or 100 nM tipifarnib (FTI) for 4 hours prior to 3 Gy radiation. (A) Cell growth on day 5 and (B) caspase 3/7 activation on day 3 were determined as described in FIG. 4. #: p<0.001 by one-way ANOVA, combo vs. single agents. […] Cell viability was determined at 5 days after treatment in comparison to vehicle-treated groups. […]

T4302 CD133+ cells [2] = experiment: Caspase 3/7 activation (apoptosis); conditions: for apoptotic cell death: following 3-Gy X-ray radiation, 2 μM DAPT or 0.5 μM L685,458
Method: (A) T4302 CD133+ GBM stem cells were enriched from freshly collected subcutaneous xenograft tumors, cultured in stem cell media. Cells were left unirradiated or irradiated at 3 Gy. The relative mRNA levels of Hes2 were determined by quantitative real-time PCR at the time points as indicated. (B) T4302 CD133+ cells were pre-treated with vehicle (DMSO), 2 μM DAPT or 0.5 μM L685,458 for 4 hours and irradiated as indicated. Cells were then plated to form neurospheres. Fourteen days after plating, neurospheres containing more than 50 cells were scored. To determine the surviving fractions, the number of neurosphere at each radiation dose was normalized to that of the corresponding sham-irradiated group. (C) T4302 CD133+ cells were treated with GSIs±radiation as indicated. Relative caspase 3/7 activities were determined by normalizing caspase activities to the corresponding cell numbers. (D), (E) T4302 CD133+ cells were infected with lentivirus directing expression of non-targeting shRNA or shRNAs specific to Notch1 or Notch2 (KD-Notch1 or KD-Notch2), and selected with puromycin. Relative caspase 3/7 activities and clonogenic survival were determined as described above. (F) T4302 CD133+ cells were infected with control lentivirus or lentivirus directing expression of NICD2. Clonogenic survival was determined as described above. *: p<0.05 by Student's t-test; #: p<0.01 by one-way ANOVA.
(A, B) T4302 CD133+ cells were treated with 100 nM RO4929097 (GSI) and/or 100 nM tipifarnib (FTI) for 4 hours prior to 3 Gy radiation. (A) Cell growth on day 5 and (B) caspase 3/7 activation on day 3 were determined as described in FIG. 4. #: p<0.001 by one-way ANOVA, combo vs. single agents. (C) The effects of GSIs and FTI against growth of T4302 CD133− cells were determined as described in panel A. (D, E) T4302 CD133+ cells were treated with GSI, FTI, or a 1:1 mixture at different concentrations (ranging from 3000 nM to ˜0.5 nM, 1:3 dilution)±3 Gy radiation. Cell viability was determined at 5 days after treatment in comparison to vehicle-treated groups. […] (F) T4302 CD 133+ cells were treated by GSI±FTI with a 2-fold dilution. Neurospheres were countered on day 10, and normalized to the vehicle-treated group.

GBM 44 = experiment: Growth inhibition at day 5, spheroid GBM culture
Method: (A) Known genetic features of selected GBM samples. WT: wild type; Amp: amplification; vIII: EGFRvIII; ND: not determined. (B) Spheroid GBM cultures were derived from freshly collected subcutaneous tumors and cultured for 2 weeks in stem cell media to enrich stem cell-like cancer cells. SF7225 was maintained as a primary spheroid culture. Growth inhibition at day 5 after treatment was determined as described in FIG. 5. *: p<0.01 by Student's t-test and growth inhibition ≧30% vs. the corresponding vehicle-treated groups. #: p<0.01 and >30% growth inhibition vs. the radiation only groups.
Work is now extended to a set of subcutaneous GBM xenografts (GBM) established by Dr. Jann Sarkaria and colleagues at Mayo Clinic. These samples are known to have mutational status of EGFR, p53 and PTEN and different radiosensitivity (FIG. 8A) (69-71). Because the cancer stem cell identity of CD133+ of the Mayo Clinic samples has not been validated by functional assays, the present inventor used the neurosphere culture that is widely utilized as a surrogate of GSCs for its ability to enrich GSC-like population (72, 73). Tumor response to GSI, FTI and/or radiation was determined as growth inhibition on day 5 after treatment, with a greater than 30% cell number reduction was defined as positive response mimicking the RECIST criteria (FIG. 8B). […] Therefore, the present inventor will continuously expand the GBM panel and determine the genomic features of all samples with focus on prevalent GBM-associated aberrations. On the basis of this molecularly characterized tumor panel, the present inventor will start to explore the potential biomarkers that may predict tumor response to the combination therapy of radiation, GSI and FTI by experiments described in herein.

CD133+ GBM stem cells = experiment: Growth inhibition within 5 days, panel of glioblastoma xenograft samples; conditions: 5-day period; in combination with 3 Gy radiation
Method: CD133+ cells were derived from multiple glioblastoma xenograft samples as indicated. The growth inhibitory effects by GSI and/or FTIs were determined as described in FIG. 5.
Therefore, effective killing of GBM stem cells may delay or even prevent tumor recurrence. […] In combination with radiation, GSIs or FTIs alone reduced cell numbers by ˜75%.

Structure (SMILES) | clonogenic survival (T4302 CD133+ cells [1]) | apoptotic cell death (T4302 CD133+ cells [2]) | growth inhibition on day 5 (GBM 44; 0 Gy) [%] | growth inhibition on day 5 (GBM 44; 3 Gy) [%] | increase of caspase 3/7 activity compared with the sham-treated group (T4302 CD133+ cells [2]; following 3-Gy radiation, 100 nM, day 3) | growth inhibition / reduction of cell numbers (CD133+ GBM stem cells) [%]
CC(C)C[C@H](NC(=O)[C@H](Cc1ccccc1)C[C@@H](O)[C@H](Cc1ccccc1)NC(=O)OC(C)(C)C)C(=O)N[C@@H](Cc1ccccc1)C(N)=O [L-685,458] | reduced clonogenic survival | increased apoptotic cell death |  |  |  | 
C[C@H](NC(=O)Cc1cc(F)cc(F)c1)C(=O)N[C@H](C(=O)OC(C)(C)C)c1ccccc1 [DAPT] | reduced clonogenic survival | increased apoptotic cell death |  |  |  | 
Cn1cncc1[C@@](N)(c1ccc(Cl)cc1)c1ccc2c(c1)c(-c1cccc(Cl)c1)cc(=O)n2C [tipifarnib] |  |  | 23.4±6.4 | 42±7.2 | approximately 2 fold | ~75
